Measurements published in patent US8859743B2, “Controlling microbial contamination in alcoholic fermentation process” (Arch Chemicals, Inc., priority 2009, dated 2014).

Legend:
Format in all cases: cell-based
Wild yeast = experiment: Count of wild yeast in treated fermentative must (WLN+)
Lactobacilli = experiment: Count of Lactobacilli in treated fermentative must (MRS)
bacteria = experiment: Count of other bacteria in treated fermentative must (TSA)
Saccharomyces cerevisiae = experiment: Count of fermentative yeast in treated fermentative must (WLN)
[1] = in relation to the control sample 4

CC[C@@]1([C@@H]2O[C@@H]([C@H]3O[C@@](O)(CO)[C@H](C)C[C@@H]3C)C[C@@H]2C)CC[C@H]([C@]2(C)CC[C@]3(C[C@H](O)[C@@H](C)[C@@H]([C@@H](C)[C@@H](OC)[C@H](C)C(=O)O)O3)O2)O1 [Sample 01, monensin]
WLN+ UFC/mL Wild yeast (Wild yeast; fermentative must after treatment, blank 9.5 × 10^6): 2 × 10^4 UFC/mL
reduction in the wild yeast (Wild yeast; [1]): about 3 log
MRS UFC/mL Lactobacilli (Lactobacilli; fermentative must after treatment, blank 3.1 × 10^6): 2.5 × 10^2 UFC/mL
reduction in the Lactobacilli (Lactobacilli; [1]): about 4 log
TSA UFC/mL bacteria (bacteria; fermentative must after treatment, blank 6 × 10^5): 7 × 10^3 UFC/mL
reduction in other bacteria (bacteria; [1]): about 2 log
WLN UFC/mL Saccharomyces cerevisiae (Saccharomyces cerevisiae; fermentative must after treatment, blank 1.3 × 10^6): 1 × 10^5 UFC/mL
reduction in the fermentative yeast (Saccharomyces cerevisiae; [1]): about 1 log
